Source: patent publication US20210138055A1, “COMPOSITIONS, METHODS AND USES FOR MODULATING THE TUMOR MICROENVIRONMENT TO ENHANCE ANTITUMOR IMMUNITY” (COLORADO STATE UNIVERSITY RESEARCH FOUNDATION, priority 2018, published 2021)

System: monocytes from healthy dogs
Assay: Monocyte migration inhibition in vitro
Settings: at relevant serum concentrations (levels achieved by oral dosing); compared to positive and negative controls; FIG. 4

SMILES | monocyte migration inhibitory activity
CC(C)NCC(O)COc1cccc2ccccc12 (centres unmarked) [propranolol] | significant inhibitory activity
CCCCc1nc(Cl)c(CO)n1Cc1ccc(-c2ccccc2-c2nn[nH]n2)cc1 [losartan] | significant inhibitory activity
